From patent US4778811A, “Pharmaceutical compositions of 2-methyl-thiazolo[4,5-c]quinoline” (EGIS Gyogyszergyar, priority 1985, dated 1988)

What was measured:
[1] = Screening test: one session conditioning / unconditioned reflex, glass cylinder jump; type: in vivo, rats; details: 0.025 mg/kg
Method: Was elaborated for studying learning and retention of rats during one session conditioning.
During conditioning rats are trained to jump onto the top of glass cylinder by the electric foot-shock (110 V). The escape reaction (unconditioned reflex, UR) is paired with a bell as conditioned stimulus. The criterion of learning is that conditioned reflex (CR) should be elicited 10 times with 10 s intervals without reinforcement. Retention of CR is taken positive when 24 h following the experiment CR can be elicited. In these experiments animals are distributed into 4 categories on the basis of their learning ability.

[2] = Effect on basal metabolism (O2 consumption); type: in vivo, rats; details: urethane 0.6 g/kg i.p., 30° C.
Method: The O2 consumption of rats was measured by the method of Issekutz and Issekutz (1952) at constant temperature (30° C.).
O2 consumption of the animals was expressed in ml/h and calculated for body surface, and given finally in ml/h/dm^2. Following injection of urethane and the basal O2 consumption was measured during 30 minutes. This was followed by the injection of the test substance and O2 consumption was registered immediately afterwards. The difference between the highest O2 consumption and the basal value was expressed in percent.
O2 consumption of the animals was calculated according to the following equation: [formula] V=2000 cm^3 P=pressure fall (mmHg)
T=period of measurement (h)
O2 consumption was calculated for body surface and expressed as ml/dm^2 /h. Body surface was calculated on the basis of the "Diack" formula: […]

benzodiazepine receptor = assay: Benzodiazepine (BZD) receptor binding, 3H-diazepam displacement, crude cortical membrane preparation; details: crude cortical membrane, 1 hr, 0° C., TRIS-citrate buffer, pH 6.8
Method: For the studies of benzodiazepine /BZD) receptor binding crude cortical membrane preparation was used. […] ^3 H-diazepam was incubated with the membrane for 1 hr at 0° C. in TRIS-citrate buffer, pH 6.8. Specific binding was determined in the presence of 10 μM diazepam. In displacement studies chlordiazepoxide was used as control drug.

[3] = Shuttle-box, acquisition of two-way conditioned avoidance reflex; type: in vivo
Method: The acquisition of a two-way conditioned avoidance reflex (CAR) was analyzed in the shuttle-box during 5 consecutive days. […] It consists of six boxes, each is separated inside by a barrier with a small gate in the middle. […] They were given 100 trials per day. One trial consisted of 15 s intertrial interval, followed by 15 s CS. The last 5 s of CS overlapped the first s of US. At each learning session the number of CAR and intersignal reactions (IR) was automatically counted and evaluated by multiway analysis of variance (ANOVA).

serotonin (5HT) = assay: 5HT level and turnover rate of 5HT in rat brain parts; type: in vivo; details: 1 hr after 30 mg/kg s.c.
Method: (§1) 11. The turnover rate of dopamine (TRDA), noradrenaline (TRNA) and serotonin (TR5 HT) was measured 1 hr after the injection of 30 mg/kg s.c. 2-methyl-thiazolo[4,5-c]quinoline-ethanesulphonate.

dopamine (DA) = assay: DA level and turnover rate of DA in rat striatum; type: in vivo; details: 1 hr after 30 mg/kg s.c.
Method: as §1

## O=C(CCCN1CCC(O)(c2ccc(Cl)cc2)CC1)c1ccc(F)cc1 [Haloperidol, reference compound]
[1]
  inhibition of the development of conditioned reflex: strong inhibition
[2]
  rate of metabolism / O2 consumption: slightly decreased

## CNC1=Nc2ccc(Cl)cc2C(c2ccccc2)=[N+]([O-])C1 [Chlordiazepoxide, chlordiazepoxide, reference compound]
[1]
  inhibition of the development of conditioned reflex: does not influence the development of CR
Benzodiazepine receptor
  displacement of 3H-diazepam specific binding: displaced ^3 H-diazepam on the receptor in concentration dependent manner
[3]; 5 mg/kg s.c., day 1
  acquisition of conditioned reflex, number of positive responses (F): 23.1
  number of intersignal reactions (IR): 108
  number of negative responses (-f): 11.8
[3]; 5 mg/kg s.c., day 2
  acquisition of conditioned reflex, number of positive responses (F): 38.7
  number of intersignal reactions (IR): 14.0
  number of negative responses (-f): 9.1
[3]; 5 mg/kg s.c., day 3
  acquisition of conditioned reflex, number of positive responses (F): 35.6
  number of intersignal reactions (IR): 8.9
  number of negative responses (-f): 10.2
[3]; 5 mg/kg s.c., day 4
  acquisition of conditioned reflex, number of positive responses (F): 41.1
  number of intersignal reactions (IR): 6.7
  number of negative responses (-f): 14.9
[3]; 5 mg/kg s.c., day 5
  acquisition of conditioned reflex, number of positive responses (F): 50.8
  number of intersignal reactions (IR): 4.2
  number of negative responses (-f): 13.0
[3]; 10 mg/kg
  number of negative responses (f) (in words): increased
[3]; 10 mg/kg s.c., day 1
  acquisition of conditioned reflex, number of positive responses (F): 19.9
  number of intersignal reactions (IR): 10.8
  number of negative responses (-f): 32.7
[3]; 10 mg/kg s.c., day 2
  acquisition of conditioned reflex, number of positive responses (F): 37.9
  number of intersignal reactions (IR): 14.7
  number of negative responses (-f): 22.8
[3]; 10 mg/kg s.c., day 3
  acquisition of conditioned reflex, number of positive responses (F): 33.7
  number of intersignal reactions (IR): 8.1
  number of negative responses (-f): 31.8
[3]; 10 mg/kg s.c., day 4
  acquisition of conditioned reflex, number of positive responses (F): 35.6
  number of intersignal reactions (IR): 6.3
  number of negative responses (-f): 36.5
[3]; 10 mg/kg s.c., day 5
  acquisition of conditioned reflex, number of positive responses (F): 41.2
  number of intersignal reactions (IR): 6.1
  number of negative responses (-f): 40.8
[3]; 25 mg/kg s.c., day 1
  acquisition of conditioned reflex, number of positive responses (F): 9.7
  number of negative responses (-f): 74.0
[3]; 25 mg/kg s.c., day 2
  acquisition of conditioned reflex, number of positive responses (F): 12.2
  number of negative responses (-f): 67.5
[3]; 25 mg/kg s.c., day 3
  acquisition of conditioned reflex, number of positive responses (F): 17.9
  number of negative responses (-f): 67.0
[3]; 25 mg/kg s.c., day 4
  acquisition of conditioned reflex, number of positive responses (F): 20.0
  number of negative responses (-f): 65.6
[3]; 25 mg/kg s.c., day 5
  acquisition of conditioned reflex, number of positive responses (F): 21.4
  number of negative responses (-f): 59.8
[3]; 10 and 5 mg/kg
  acquisition of conditioned reflex (in words): unchanged
  intersignal reactions (IR) (in words): unchanged

## Cc1nc2cnc3ccccc3c2s1 [B compound, 2-methyl-thiazolo[4,5-c]quinoline-ethanesulfonate]
Serotonin (5HT); brainstem
  5HT level: 792.5 ± 36.9 ng/g
  TR5HT (turnover rate of 5HT): 237.2 ng/g/h
Serotonin (5HT); teldiencephalon
  5HT level: 457.9 ± 24.2 ng/g
  TR5HT (turnover rate of 5HT): 53.9 ng/g/h
Dopamine (DA)
  DA level: 9.14 ± 0.49 µg/g
  TRDA (turnover rate of DA): 1.4 ng/g/h
[3]; 10 mg/kg s.c., day 1
  acquisition of conditioned reflex, number of positive responses (F): 7.5
  number of intersignal reactions (IR): 11.4
  number of negative responses (-f): 76.0
[3]; 10 mg/kg s.c., day 2
  acquisition of conditioned reflex, number of positive responses (F): 20.2
  number of intersignal reactions (IR): 9.1
  number of negative responses (-f): 40.8
[3]; 10 mg/kg s.c., day 3
  acquisition of conditioned reflex, number of positive responses (F): 20.2
  number of intersignal reactions (IR): 7.6
  number of negative responses (-f): 29.3
[3]; 10 mg/kg s.c., day 4
  acquisition of conditioned reflex, number of positive responses (F): 17.8
  number of intersignal reactions (IR): 4.5
  number of negative responses (-f): 29.9
[3]; 10 mg/kg s.c., day 5
  acquisition of conditioned reflex, number of positive responses (F): 14.5
  number of intersignal reactions (IR): 3.3
  number of negative responses (-f): 37.5
[3]; 25 mg/kg s.c., day 1
  acquisition of conditioned reflex, number of positive responses (F): 8.7
  number of intersignal reactions (IR): 12.4
  number of negative responses (-f): 54.9
[3]; 25 mg/kg s.c., day 2
  acquisition of conditioned reflex, number of positive responses (F): 4.2
  number of intersignal reactions (IR): 5.0
  number of negative responses (-f): 67.4
[3]; 25 mg/kg s.c., day 3
  acquisition of conditioned reflex, number of positive responses (F): 8.9
  number of intersignal reactions (IR): 9.2
  number of negative responses (-f): 74.1
[3]; 25 mg/kg s.c., day 4
  acquisition of conditioned reflex, number of positive responses (F): 4.0
  number of intersignal reactions (IR): 4.9
  number of negative responses (-f): 80.1
[3]; 25 mg/kg s.c., day 5
  acquisition of conditioned reflex, number of positive responses (F): 2.5
  number of intersignal reactions (IR): 3.3
  number of negative responses (-f): 85.0

## CC(N)Cc1ccccc1 (stereo not drawn) [amphetamine]
[2]
  rate of metabolism / O2 consumption: dose-dependently increased
